According to the supplement of paper PMC10307832:

Tests used:
Assay in all cases: relative viability (nuclei count vs DMSO), 5 days (fraction); higher = more cells survive
[1] = compound: COc1cc2nccc(Oc3ccc(NC(=O)C4(C(=O)Nc5ccc(F)cc5)CC4)cc3)c2cc1OC [Cabozantinib] + CS(=O)(=O)N1CCN(Cc2cc3nc(-c4cccc5[nH]ncc45)nc(N4CCOCC4)c3s2)CC1 [Pictilisib] (partner 1 µM)
Summary of the method: (§1)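 Relative viability was taken as the ratio of nuclei in treated wells to nuclei in vehicle wells. Lung cancer cell lines in 1536-well plates received compounds by pin tool one day after seeding, either one drug alone or a fixed anchor-drug dose plus five library-drug doses (not always all listed) in √10 steps. Nuclei were counted on 4× images after 5 days of treatment, and values are medians of duplicate plates.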

[2] = compound: O[C@@H](COc1cccc2ncccc12)CN1CCN([C@@H]2c3ccccc3[C@@H]3[C@H](c4ccccc42)C3(F)F)CC1 [Zosuquidar] + CC(=O)Nc1cccc(-n2c(=O)n(C3CC3)c(=O)c3c(Nc4ccc(I)cc4F)n(C)c(=O)c(C)c32)c1 [Trametinib] (partner 0.02 µM)
Summary of the method: as §1

[3] = compound: C1=CC(=CC=C1NC(=S)NNC2=C(C=C(C=C2[N+](=O)[O-])C(F)(F)F)[N+](=O)[O-])F [Kobe2602] + O=C(c1cc(Cc2n[nH]c(=O)c3ccccc23)ccc1F)N1CCN(C(=O)C2CC2)CC1 [Olaparib] (partner 8 µM)
Summary of the method: as §1

[4] = compound: COc1cc2nccc(Oc3ccc(NC(=O)C4(C(=O)Nc5ccc(F)cc5)CC4)cc3)c2cc1OC [Cabozantinib] + Nc1nc2[nH]cc(CCc3ccc(C(=O)N[C@@H](CCC(=O)O)C(=O)O)cc3)c2c(=O)[nH]1 [Pemetrexed] (partner 0.2 µM)
Summary of the method: as §1

| Cell Line | relative viability ([1]; first compound 0.02 µM) | relative viability ([1]; first compound 0.06325 µM) | relative viability ([1]; first compound 0.2 µM) | relative viability ([1]; first compound 0.6325 µM) | relative viability ([1]; first compound 2 µM) | relative viability ([2]; first compound 0.01 µM) | relative viability ([2]; first compound 0.03162 µM) | relative viability ([2]; first compound 0.1 µM) | relative viability ([2]; first compound 0.3162 µM) | relative viability ([2]; first compound 1 µM) | relative viability ([3]; first compound 0.2 µM) | relative viability ([3]; first compound 0.6325 µM) | relative viability ([3]; first compound 2 µM) | relative viability ([3]; first compound 6.325 µM) | relative viability ([3]; first compound 20 µM) | relative viability ([4]; first compound 0.02 µM) | relative viability ([4]; first compound 0.06325 µM) | relative viability ([4]; first compound 0.2 µM) | relative viability ([4]; first compound 0.6325 µM) | relative viability ([4]; first compound 2 µM) |
| --- | --- | --- | --- | --- | --- | --- | --- | --- | --- | --- | --- | --- | --- | --- | --- | --- | --- | --- | --- | --- |
| NCI-H650 | 0.765 | 1.02 | 1.02 | 0.774 | 0.868 | 1.22 | 0.957 | 1 | 0.969 | 1.08 | 0.4 | 0.443 | 0.37 | 0.403 | 0.401 | 0.792 | 1.07 | 0.964 | 0.941 | 0.916 |
| LXF-289 | 0.74 | 0.727 | 0.783 | 0.69 | 0.693 | 0.614 | 0.703 | 0.675 | 0.727 | 0.654 | 1.05 | 1.1 | 1.05 | 0.955 | 1.04 | 0.957 | 0.953 | 0.868 | 0.883 | 0.897 |
| NCI-H1703 | 0.214 | 0.229 | 0.249 | 0.226 | 0.18 | – | – | – | – | – | 0.454 | 0.364 | 0.4 | 0.483 | 0.431 | – | – | – | – | – |
| SK-MES-1 | 0.357 | 0.391 | 0.335 | 0.386 | 0.322 | 0.616 | 0.494 | 0.535 | 0.563 | 0.549 | 0.674 | 0.643 | 0.635 | 0.551 | 0.281 | 1.02 | 1.01 | 1 | 0.904 | 0.937 |
| NCI-H522 | – | – | – | – | – | 0.81 | 0.706 | 0.843 | 0.723 | 0.719 | 0.66 | 0.662 | 0.646 | 0.641 | 0.598 | 1.16 | 0.972 | 0.943 | 1.25 | 0.934 |
| LOU-NH91 | 0.494 | 0.541 | 0.476 | 0.485 | 0.513 | 0.782 | 0.809 | 0.695 | 0.808 | 0.785 | 0.9 | 0.922 | 0.875 | 0.917 | 0.819 | 0.424 | 0.366 | 0.487 | 0.371 | 0.413 |
| NCI-H1355 | 0.49 | 0.442 | 0.453 | 0.432 | 0.526 | 0.461 | 0.416 | 0.435 | 0.557 | 0.401 | 0.742 | 0.747 | 0.712 | 0.727 | 0.601 | 1.05 | 1.12 | 1.04 | 1.07 | 1.06 |
| NCI-H460 | 0.232 | 0.44 | 0.379 | 0.23 | 0.439 | 0.13 | 0.142 | 0.157 | 0.239 | 0.0685 | 0.427 | 0.416 | 0.455 | 0.423 | 0.43 | 0.0695 | 0.0609 | 0.0626 | 0.0622 | 0.0696 |
| Calu-6 | 0.984 | 1.05 | 0.878 | 0.814 | 0.78 | – | – | – | – | – | 0.581 | 0.589 | 0.606 | 0.631 | 0.514 | – | – | – | – | – |
| NCI-H2342 | – | – | – | – | – | 0.805 | 0.975 | 0.757 | 0.873 | 0.957 | 0.415 | 0.406 | 0.435 | 0.493 | 0.434 | 0.711 | 0.828 | 0.83 | 0.86 | 0.729 |
| NCI-H1563 | 0.572 | 0.607 | 0.637 | 0.621 | 0.66 | – | – | – | – | – | – | – | – | – | – | 0.645 | 0.869 | 0.984 | 0.684 | 0.802 |
| NCI-H727 | 0.228 | 0.493 | 0.302 | 0.357 | 0.36 | 0.391 | 0.378 | – | 0.394 | 0.383 | 0.748 | 0.678 | 0.847 | – | 0.736 | – | – | – | – | – |
| NCI-H1299 | 0.961 | 0.924 | 0.953 | 0.876 | 0.733 | – | – | – | – | – | 0.996 | 1.02 | 0.949 | 1.02 | 0.985 | – | – | – | – | – |
| SW 900 | – | – | – | – | – | 0.666 | 0.715 | – | 1.05 | 0.988 | 0.914 | 0.981 | 0.679 | 0.969 | 0.976 | 0.47 | 0.482 | 0.486 | 0.448 | 0.448 |
| ABC-1 | 0.604 | 0.707 | 0.681 | 0.701 | 0.819 | – | – | – | – | – | 0.639 | 0.623 | 0.747 | 0.773 | 0.775 | – | – | – | – | – |
| NCI-H1648 | – | – | – | – | – | 0.479 | 0.454 | 0.465 | 0.469 | 0.408 | 0.62 | 0.929 | 0.493 | 0.772 | 0.872 | 0.73 | 0.908 | – | 0.793 | 0.82 |
| IA-LM | 0.471 | 0.381 | 0.356 | 0.39 | 0.412 | – | – | – | – | – | 0.851 | 0.718 | 0.773 | 0.894 | 0.862 | – | – | – | – | – |
| A549 | 0.572 | 0.57 | 0.502 | 0.514 | 0.379 | – | – | – | – | – | 0.45 | 0.484 | 0.281 | 0.315 | 0.513 | – | – | – | – | – |
